In patent US20230265116A1, “DEGRADATION OF (EGFR) BY CONJUGATION OF EGFR INHIBITORS WITH E3 LIGASE LIGAND AND METHODS OF USE” (BEIGENE, LTD., priority 2020, published 2023):

What was measured:
Format in all cases: cell-based
EGFR (HCC827 cells) = biological target: T1, EGFR (HCC827 cells) (Homo sapiens, UniProt P00533, DEL746-750); experiment: EGFR degradation HTRF assay, HCC827 cells; details: HCC827, 16h treatment; for Dmax: maximum percentage of degradation
T1 construct: endogenous in cells; host or cells: HCC827
T1 sequence (P00533 with tags, fused parts or gaps DEL746-750): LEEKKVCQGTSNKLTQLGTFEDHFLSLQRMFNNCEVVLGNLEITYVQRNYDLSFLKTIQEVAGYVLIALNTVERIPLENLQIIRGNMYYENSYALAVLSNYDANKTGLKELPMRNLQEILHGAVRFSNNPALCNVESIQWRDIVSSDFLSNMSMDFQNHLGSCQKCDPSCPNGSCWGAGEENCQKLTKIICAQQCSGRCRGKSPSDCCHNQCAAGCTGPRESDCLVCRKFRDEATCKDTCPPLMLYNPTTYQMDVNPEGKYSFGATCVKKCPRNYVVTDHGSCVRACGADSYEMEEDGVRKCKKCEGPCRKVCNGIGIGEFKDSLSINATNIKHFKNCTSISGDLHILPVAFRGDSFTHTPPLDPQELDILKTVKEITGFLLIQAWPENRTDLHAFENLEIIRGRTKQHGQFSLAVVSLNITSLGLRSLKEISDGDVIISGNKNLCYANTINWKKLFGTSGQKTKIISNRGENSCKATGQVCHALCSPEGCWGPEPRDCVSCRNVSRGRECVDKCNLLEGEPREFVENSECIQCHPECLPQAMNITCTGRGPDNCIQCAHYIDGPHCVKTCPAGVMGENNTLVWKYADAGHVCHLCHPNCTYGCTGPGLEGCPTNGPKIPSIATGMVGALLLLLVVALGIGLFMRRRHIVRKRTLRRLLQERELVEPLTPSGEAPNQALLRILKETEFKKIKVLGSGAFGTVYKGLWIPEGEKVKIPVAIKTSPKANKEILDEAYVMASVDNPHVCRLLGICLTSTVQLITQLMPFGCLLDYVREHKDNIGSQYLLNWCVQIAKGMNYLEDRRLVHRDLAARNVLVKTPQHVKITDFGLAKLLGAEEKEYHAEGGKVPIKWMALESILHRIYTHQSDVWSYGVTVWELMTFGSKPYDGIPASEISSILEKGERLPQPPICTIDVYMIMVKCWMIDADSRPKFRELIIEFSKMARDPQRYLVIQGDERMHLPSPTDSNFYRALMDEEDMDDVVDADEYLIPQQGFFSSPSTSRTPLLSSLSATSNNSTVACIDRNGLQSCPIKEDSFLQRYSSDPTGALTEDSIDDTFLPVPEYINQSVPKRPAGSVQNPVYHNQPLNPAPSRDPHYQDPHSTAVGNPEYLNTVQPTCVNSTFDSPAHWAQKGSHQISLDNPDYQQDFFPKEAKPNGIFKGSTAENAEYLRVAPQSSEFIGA
Experimental: BaF3 WT(wild type), BaF3-LTC(L858R/T790M/C797S) and BaF3-DTC(Del19/T790M/C797S) cells are treated with compounds diluted in 0.2% DMSO cell culture medium and incubate for 16h, 37° C., 5% CO2, H1975-#36, H1975-#28, H1975-#23 and HCC827 cells are treated with compounds diluted in 0.2% DMSO cell culture medium on day 2, incubate for 16h, 37° C., 5% CO2.the final concentriation of compounds in all assay is start with 10 uM, 5-fold dilution, total 8 doses were included.
After 16h treatment, add HTRF lysis buffer to each well; seal the plate and incubate 1 hour at room temperature on a plate shaker; Once the cells are lysed, 16 μL of cell lysate are transferred to a PE 384-well HTRF detection plate; 4 μL of pre-mixed HTRF antibodies are added to each well; Cover the plate with a plate sealer, spin 1000 rpm for 1 min, Incubate overnight at room temperature; Read on BMG PheraStar with HTRF protocol (337 nm-665 nm-620 nm).
The inhibition (degradation) percentage of the compound was calculated by the following equation: Inhibition percentage of Compound=100-100×(Signal-low control)/(High control-low control), wherein signal=each test compound group
High control=Cell group with added DMSO and without compound, indicating microplate readings without EGFR degradation;
Dmax is the maximum percentage of inhibition (degradation).
The IC50 (DC50) value of a compound can be obtained by fitting the following equation
Y=Bottom+(TOP−Bottom)/(1+((IC50/X)^hillslope))
Wherein, X and Y are known values, and IC50, Hillslope, Top and Bottom are the parameters obtained by fitting with software. Y is the inhibition percentage (calculated from the equation), X is the concentration of the compound; IC50 is the concentration of the compound when the 50% inhibition is reached. The smaller the IC50 value is, the stronger the inhibitory ability of the compound is. Vice versa, the higher the IC50 value is, the weaker the inhibitory ability of the compound is; Hillslope represents the slope of the fitted curve, generally around 1*; Bottom represents the minimum value of the curve obtained by data fitting, which is generally 0%±20%; Top represents the maximum value of the curve obtained by data fitting, which is generally 100%±20%. The experimental data were fitted by calculating and analyzing with Dotmatics data analysis software.

[1] = biological target: T2, EGFR L858R/T790M/C797S (BaF3-LTC cells) (Homo sapiens, UniProt P00533, C797S/L858R/T790M); experiment: EGFR degradation HTRF assay, BaF3-LTC cells; details: BaF3-LTC, 16h treatment; for Dmax: maximum percentage of degradation, read-out: LTC Dmax (%); for DC50: read-out: LTC DC50
T2 construct: expressed in transfected cells; host or cells: BaF3
T2 sequence (P00533 25-1210 T790M/C797S/L858R): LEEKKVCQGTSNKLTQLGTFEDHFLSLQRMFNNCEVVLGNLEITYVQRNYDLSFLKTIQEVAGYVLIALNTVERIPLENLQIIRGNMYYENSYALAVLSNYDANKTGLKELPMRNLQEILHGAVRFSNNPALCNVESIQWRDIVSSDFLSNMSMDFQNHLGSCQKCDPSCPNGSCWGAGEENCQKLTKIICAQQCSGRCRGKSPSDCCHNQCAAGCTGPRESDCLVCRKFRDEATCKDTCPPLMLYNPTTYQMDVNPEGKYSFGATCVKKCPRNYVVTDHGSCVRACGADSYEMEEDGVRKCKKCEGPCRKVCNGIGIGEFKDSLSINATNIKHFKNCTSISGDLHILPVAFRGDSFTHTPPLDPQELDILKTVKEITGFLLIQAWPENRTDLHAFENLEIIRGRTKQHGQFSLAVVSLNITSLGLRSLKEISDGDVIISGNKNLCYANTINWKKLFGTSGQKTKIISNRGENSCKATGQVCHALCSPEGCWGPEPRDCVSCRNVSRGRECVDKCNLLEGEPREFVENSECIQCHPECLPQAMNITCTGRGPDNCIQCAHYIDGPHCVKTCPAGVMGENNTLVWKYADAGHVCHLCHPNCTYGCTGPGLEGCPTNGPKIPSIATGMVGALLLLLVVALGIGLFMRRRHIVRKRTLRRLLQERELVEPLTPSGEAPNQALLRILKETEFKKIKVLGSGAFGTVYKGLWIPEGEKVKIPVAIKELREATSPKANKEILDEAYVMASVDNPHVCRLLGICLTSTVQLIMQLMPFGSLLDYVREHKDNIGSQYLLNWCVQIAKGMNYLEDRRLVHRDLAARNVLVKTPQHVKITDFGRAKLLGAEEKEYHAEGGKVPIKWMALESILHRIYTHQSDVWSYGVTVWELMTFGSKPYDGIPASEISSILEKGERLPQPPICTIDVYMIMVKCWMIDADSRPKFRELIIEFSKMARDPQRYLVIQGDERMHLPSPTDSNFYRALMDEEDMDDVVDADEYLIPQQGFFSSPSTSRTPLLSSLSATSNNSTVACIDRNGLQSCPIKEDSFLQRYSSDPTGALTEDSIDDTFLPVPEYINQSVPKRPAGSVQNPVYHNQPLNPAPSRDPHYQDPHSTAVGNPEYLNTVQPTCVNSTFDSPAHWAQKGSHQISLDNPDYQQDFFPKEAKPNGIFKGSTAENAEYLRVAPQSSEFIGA
Method in brief: (§1)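 Cells treated 16 h at 37 °C, 5% CO2 in medium with 0.2% DMSO; top final concentration 10 uM, 5-fold dilution, 8 doses. Lysates read by HTRF (665/620 nm); degradation % versus DMSO high control, DC50 from four-parameter fit, Dmax as maximal degradation.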

[2] = tested on: EGFR Del19/T790M/C797S (BaF3-DTC cells); experiment: EGFR degradation HTRF assay, BaF3-DTC cells; details: 16h treatment; for DTC Dmax (%): maximum percentage of degradation; for DC50: read-out: DTC DC50
Method in brief: as §1

SMILES | DC50 (EGFR (HCC827 cells)) | Dmax (EGFR (HCC827 cells)) | Dmax [1] | DC50 [1] | DTC Dmax (%) [2] | DC50 [2]
COc1cc(N2CCC(N3CCN(C(=O)CC4CCN(c5ccc(C6CCC(=O)NC6=O)cc5)CC4)CC3)CC2)ccc1Nc1ncc(Cl)c(Nc2ccccc2N(C)S(C)(=O)=O)n1 (stereo not shown) [Example 122, N-(2-((5-chloro-2-((4-(4-(4-(2-(1-(4-(2,6-dioxopiperidin-3-yl)phenyl)piperidin-4-yl)acetyl)piperazin-1-yl)piperidin-1-yl)-2-methoxyphenyl)amino)pyrimidin-4-yl)amino)phenyl)-N-methylmethanesulfonamide] | 6.37 nM | 69.2% |  |  |  | 
COc1cc(N2CCC(N3CCN(C(=O)CCCCN4CCN(c5ccc6c(c5)C(=O)N(C5CCC(=O)NC5=O)C6=O)CC4)CC3)CC2)ccc1Nc1ncc(Cl)c(Nc2ccccc2P(C)(C)=O)n1 (stereo not shown) [Example 114, 5-(4-(5-(4-(1-(4-((5-chloro-4-((2-(dimethylphosphoryl)phenyl)amino)pyrimidin-2-yl)amino)-3-methoxyphenyl)piperidin-4-yl)piperazin-1-yl)-5-oxopentyl)piperazin-1-yl)-2-(2,6-dioxopiperidin-3-yl)isoindoline-1,3-dione] | 8.23 nM | 82.4% |  |  |  | 
COc1cc(N2CCC(NCCCCCc3ccc(C4CCC(=O)NC4=O)cc3)CC2)ccc1Nc1ncc(Cl)c(Nc2ccccc2N(C)S(C)(=O)=O)n1 (stereo not shown) [Example 131, N-(2-((5-chloro-2-((4-(4-((5-(4-(2,6-dioxopiperidin-3-yl)phenyl)pentyl)amino)piperidin-1-yl)-2-methoxyphenyl)amino)pyrimidin-4-yl)amino)phenyl)-N-methylmethanesulfonamide] | 68.3 nM | 80.1% |  |  |  | 
CN(c1ccccc1Nc1nc(Nc2ccc(N3CC4(CN(CCc5ccc(NC6CCC(=O)NC6=O)cc5)C4)C3)c(F)c2)ncc1Cl)S(C)(=O)=O (stereo not shown) [Example 136, N-(2-((5-chloro-2-((4-(6-(4-((2,6-dioxopiperidin-3-yl)amino)phenethyl)-2,6-diazaspiro[3.3]heptan-2-yl)-3-fluorophenyl)amino)pyrimidin-4-yl)amino)phenyl)-N-methylmethanesulfonamide] | 68.5 nM | 79.5% |  |  |  | 
COc1cc(N2CCC(N(C)CCc3ccc(C4CCC(=O)NC4=O)cn3)CC2)c(C)cc1Nc1ncc(Br)c(Nc2ccc3nccnc3c2P(C)(C)=O)n1 (stereo not shown) [Example 74, 3-(6-(2-((1-(4-((5-bromo-4-((5-(dimethylphosphoryl)quinoxalin-6-yl)amino)pyrimidin-2-yl)amino)-5-methoxy-2-methylphenyl)piperidin-4-yl)(methyl)amino)ethyl)pyridin-3-yl)piperidine-2,6-dione] | 57.2 nM | 85.2% |  |  |  | 
CCc1cc(Nc2ncc(Br)c(Nc3ccc4nccnc4c3P(C)(C)=O)n2)c(OC)cc1N1CCC(N2CCN(C(=O)CN3CCN(c4ccc5c(c4)C(=O)N(C4CCC(=O)NC4=O)C5)CC3)CC2)CC1 (stereo not shown) [Example 68, 3-(6-(4-(2-(4-(1-(4-((5-bromo-4-((5-(dimethylphosphoryl)quinoxalin-6-yl)amino)pyrimidin-2-yl)amino)-2-ethyl-5-methoxyphenyl)piperidin-4-yl)piperazin-1-yl)-2-oxoethyl)piperazin-1-yl)-1-oxoisoindolin-2-yl)piperidine-2,6-dione] | 13.1 nM | 64.3% |  |  |  | 
CCc1cc(Nc2ncc(Br)c(Nc3ccc4ncsc4c3P(C)(C)=O)n2)c(OC)cc1N1CCC(N2CCN(CCc3cc(F)c(C4CCC(=O)NC4=O)c(F)c3)CC2)CC1 (stereo not shown) [Example 714, 3-(4-(2-(4-(1-(4-((5-bromo-4-((7-(dimethylphosphoryl)benzo[d]thiazol-6-yl)amino)pyrimidin-2-yl)amino)-2-ethyl-5-methoxyphenyl)piperidin-4-yl)piperazin-1-yl)ethyl)-2,6-difluorophenyl)piperidine-2,6-dione] |  |  | 90.1% | 18.9 nM | 96.7% | 5.34 nM
CCc1cc(Nc2ncc(Br)c(Nc3ccc4nccnc4c3P(C)(C)=O)n2)c(OC)cc1N1CCC(N2CCN(C[C@@H]3CCN(c4ccc5c(c4)CN(C4CCC(=O)NC4=O)C5=O)C3)CC2)CC1 (stereo partly drawn) [Example 234, 3-(5-((S)-3-((4-(1-(4-((5-bromo-4-((5-(dimethylphosphoryl)quinoxalin-6-yl)amino)pyrimidin-2-yl)amino)-2-ethyl-5-methoxyphenyl)piperidin-4-yl)piperazin-1-yl)methyl)pyrrolidin-1-yl)-1-oxoisoindolin-2-yl)piperidine-2,6-dione] |  |  | 87.8% | 15.8 nM | 90.55% | 4.19 nM
CCc1cc(Nc2ncc(Br)c(Nc3ccc4c(=O)n(C)cnc4c3P(C)(C)=O)n2)c(OC)cc1N1CCC(N2CCN(CCC3CCN(c4cc(F)c(C5CCC(=O)NC5=O)c(F)c4)CC3)CC2)CC1 (stereo not shown) [Example 721, 3-(4-(4-(2-(4-(1-(4-((5-bromo-4-((8-(dimethylphosphoryl)-3-methyl-4-oxo-3,4-dihydroquinazolin-7-yl)amino)pyrimidin-2-yl)amino)-2-ethyl-5-methoxyphenyl)piperidin-4-yl)piperazin-1-yl)ethyl)piperidin-1-yl)-2,6-difluorophenyl)piperidine-2,6-dione] |  |  | 91.9% | 49.4 nM | 88.98% | 7.28 nM
CCc1cc(Nc2ncc(Br)c(Nc3ccc4nccnc4c3P(C)(C)=O)n2)c(OC)cc1N1CCC(N2CCN(CC3CCN(c4cc(F)c(C5CCC(=O)NC5=O)c(F)c4)CC3)CC2)CC1 (stereo not shown) [Example 303, 3-(4-(4-((4-(1-(4-((5-bromo-4-((5-(dimethylphosphoryl)quinoxalin-6-yl)amino)pyrimidin-2-yl)amino)-2-ethyl-5-methoxyphenyl)piperidin-4-yl)piperazin-1-yl)methyl)piperidin-1-yl)-2,6-difluorophenyl)piperidine-2,6-dione] |  |  | 86.7% | 41.2 nM | 90.93% | 10.6 nM
CCc1cc(Nc2ncc(Br)c(Nc3ccc4nccnc4c3P(C)(C)=O)n2)c(OC)cc1N1CCC(N2CCN(CCc3cc(Cl)c(C4CCC(=O)NC4=O)cc3F)CC2)CC1 (stereo not shown) [Example 166, 3-(4-(2-(4-(1-(4-((5-bromo-4-((5-(dimethylphosphoryl)quinoxalin-6-yl)amino)pyrimidin-2-yl)amino)-2-ethyl-5-methoxyphenyl)piperidin-4-yl)piperazin-1-yl)ethyl)-2-chloro-5-fluorophenyl)piperidine-2,6-dione] |  |  | 80.1% | 49.3 nM | 85.99% | 13.5 nM
COc1cc(N2CCC(N3CCN(CCC4CCN(c5cc(F)c(C6CCC(=O)NC6=O)c(F)c5)CC4)CC3)CC2)ccc1Nc1ncc(Br)c(Nc2ccc3nc(C)ccc3c2P(C)(C)=O)n1 (stereo not shown) [Example 218, 3-(4-(4-(2-(4-(1-(4-((5-bromo-4-((5-(dimethylphosphoryl)-2-methylquinolin-6-yl)amino)pyrimidin-2-yl)amino)-3-methoxyphenyl)piperidin-4-yl)piperazin-1-yl)ethyl)piperidin-1-yl)-2,6-difluorophenyl)piperidine-2,6-dione] |  |  | 87.3% | 9.19 nM | 97.83% | 2.9 nM
CCc1cc(Nc2ncc(Br)c(Nc3ccc4nccnc4c3P(C)(C)=O)n2)c(OC)cc1N1CCC(N2CCN(CCc3ccc(C4(C)CCC(=O)NC4=O)cc3)CC2)CC1 (stereo not shown) [Example 280, 3-(4-(2-(4-(1-(4-((5-bromo-4-((5-(dimethylphosphoryl)quinoxalin-6-yl)amino)pyrimidin-2-yl)amino)-2-ethyl-5-methoxyphenyl)piperidin-4-yl)piperazin-1-yl)ethyl)phenyl)-3-methylpiperidine-2,6-dione] |  |  | 76% | 248 nM | 68.21% | 152 nM
